Source: ChEMBL document CHEMBL1145849, “QSAR and the rational design of long-acting dual D2-receptor/beta 2-adrenoceptor agonists” (J Med Chem, 2003)
Values joined by “and” are separate entries in the source; they are usually repeats but may differ in a detail not shown here. Identical values can stand only once.

Legend:
[1] = physchem
Description: Ionization constant (pKa)

[2] = physchem; remark: listed apart in the source
Description: (§1) Classification of ionization constant (pKa)

[3] = target: Beta-2 adrenergic receptor (Cavia porcellus) (UniProt Q8K4Z4); conditions: Trachea
Description: Beta-2-adrenoceptor potency was determined in rings of guinea-pig isolated trachea

[4] = physchem; conditions: octanol/water, pH 7.4, logD
[5] = octanol/water, pH 7.4
[6] = target: D(2) dopamine receptor (Homo sapiens) (UniProt P14416); assay: […] D2 duration was determined using electrically stimulated guinea-pig isolated trachea superfusion system; type: functional; conditions: Cavia porcellus, target entry is the homologue from another species
[7] = target: Beta-2 adrenergic receptor (Cavia porcellus) (UniProt Q8K4Z4)
Description: In vitro beta-2 duration was determined using electrically stimulated guinea-pig isolated trachea superfusion system

[8] = physchem; remark: listed apart in the source
Description: as §1

Beta-2 adrenergic receptor (Cavia porcellus), sequence (Q8K4Z4 whole entry, looked up): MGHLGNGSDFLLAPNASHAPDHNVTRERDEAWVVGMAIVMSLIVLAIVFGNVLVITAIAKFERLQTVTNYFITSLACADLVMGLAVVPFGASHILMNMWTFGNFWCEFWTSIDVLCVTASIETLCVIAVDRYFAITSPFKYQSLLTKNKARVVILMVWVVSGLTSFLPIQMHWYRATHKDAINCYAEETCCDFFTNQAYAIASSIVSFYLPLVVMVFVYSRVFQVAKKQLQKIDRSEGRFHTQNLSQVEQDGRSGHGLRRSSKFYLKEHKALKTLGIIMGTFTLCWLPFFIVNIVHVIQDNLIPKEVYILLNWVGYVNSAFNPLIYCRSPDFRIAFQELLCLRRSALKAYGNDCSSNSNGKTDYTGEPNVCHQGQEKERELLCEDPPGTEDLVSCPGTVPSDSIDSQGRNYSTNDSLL
D(2) dopamine receptor (Homo sapiens), sequence (P14416 whole entry, the tested form may be a part): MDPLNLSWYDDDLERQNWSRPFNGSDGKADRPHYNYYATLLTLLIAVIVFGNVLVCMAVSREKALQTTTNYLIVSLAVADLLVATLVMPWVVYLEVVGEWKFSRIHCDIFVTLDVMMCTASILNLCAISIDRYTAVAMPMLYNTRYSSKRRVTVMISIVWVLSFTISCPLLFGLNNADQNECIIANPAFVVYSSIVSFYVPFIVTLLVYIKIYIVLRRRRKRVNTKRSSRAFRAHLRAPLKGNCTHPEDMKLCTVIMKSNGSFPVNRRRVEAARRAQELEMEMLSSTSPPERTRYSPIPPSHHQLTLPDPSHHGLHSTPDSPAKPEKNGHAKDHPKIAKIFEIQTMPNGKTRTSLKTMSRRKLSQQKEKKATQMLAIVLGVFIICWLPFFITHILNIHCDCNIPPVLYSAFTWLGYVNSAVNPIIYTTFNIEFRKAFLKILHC

SMILES | pKa [1] | pKa [2] | p[A]50 [3] | logD [4] | logD [5] | D2 duration [6] | Beta2 duration [7] | pKa [8]
O=c1[nH]c2c(O)ccc(CCNCCCSCCOCCc3ccccc3)c2s1 | > 8 | 10.2 | 8.02 | 2.31 | 3.53 | 270 min | > 180 min | –
O=S(=O)(CCCNCCc1ccc(O)c2nc(O)sc12)CCOCCc1ccccc1 | > 8 | 9.07 | 7.93 | 1.37 | – | 270 min | 140 min | 7.35
CN(CCCS(=O)(=O)CCOCCc1ccccc1)CCc1ccc(O)c2nc(O)sc12 | – | – | – | – | – | 150 min | – | –
O=c1[nH]c2c(O)ccc(CCNCCCS(=O)(=O)CCCOCCc3ccccc3)c2s1 | > 8 | – | 8.24 | 1.65 | 1.34 | 270 min | 172 min and 80 min | –
O=S(=O)(CCOCCc1ccccc1)NCCNCCc1ccc(O)c2nc(O)sc12 | > 8 | 8.58 | 7.39 | 1.56 | – | – | 135 min | 7.5
Oc1nc2c(O)ccc(CCNCCCCCCOCCc3ccccc3)c2s1 | > 8 | – | 8.23 | 2.73 | – | 270 min | > 180 min | –
O=C(CCOCCc1ccccc1)NCCNCCc1ccc(O)c2nc(O)sc12 | > 8 | 8.75 | 9.27 | 1.34 | – | 150 min | 57 min | 7.62
Nc1ccccc1CCOCCS(=O)(=O)CCCNCCc1ccc(O)c2nc(O)sc12 | > 8 | – | 7.46 | 1.17 | – | – | 33 min | –
O=S(=O)(CCCOCCc1ccc(NS(=O)(=O)c2ccccc2)cc1)CCNCCc1ccc(O)c2nc(O)sc12 | < 8 | – | 7.7 | 2.88 | – | – | > 180 min | –
O=c1[nH]c2c(O)ccc(CCNCCS(=O)(=O)CCCOCCc3ccccc3)c2s1 [SIBENADET] | < 8 | 6.58 | 8.09 | 2.51 | – | – | 146 min | 8.55
O=S(=O)(CCCCCCNCCc1ccc(O)c2nc(O)sc12)CCc1ccccc1 | > 8 | – | 7 | 1.44 | – | – | > 180 min | –
O=S(=O)(CCCNCCc1ccc(O)c2nc(O)sc12)CCSCCc1ccccc1 | > 8 | – | 7.57 | 2.34 | – | – | > 180 min | –
O=S(=O)(CCCOCCCCc1ccccc1)CCNCCc1ccc(O)c2nc(O)sc12 | < 8 | – | 7.76 | 3.62 | – | – | > 180 min | –
O=S(=O)(CCCOCCCc1ccccc1)CCNCCc1ccc(O)c2nc(O)sc12 | < 8 | – | 7.35 | 3.13 | – | – | 157 min | –
Oc1nc2c(O)ccc(CCNCCCSCCOCCCc3ccccc3)c2s1 | > 8 | – | 7.86 | 2.8 | – | – | > 180 min | –
Oc1nc2c(O)ccc(CCNCCCOCCOCCc3ccccc3)c2s1 | > 8 | 9.23 | 8.82 | 1.19 | – | – | > 180 min | 7.65
Oc1nc2c(O)ccc(CCNCCOCCCOCCc3ccccc3)c2s1 | > 8 | 8.68 | 7.16 | 2.06 | – | – | > 1080 min | 7.55

SMILES | pKa [1] | pKa [2] | p[A]50 [3] | logD [4] | logD [5] | D2 duration [6] | Beta2 duration [7] | pKa [8]
Oc1nc2c(O)ccc(CCNCCNCCCOCCc3ccccc3)c2s1 | > 8 | – | 7.01 | 0.88 | – | – | 32 min | –
[O-][S+](CCCNCCc1ccc(O)c2nc(O)sc12)CCOCCc1ccccc1 (centres undefined) | > 8 | – | 8.47 | 1.12 | – | – | 84 min | –
Oc1nc2c(O)ccc(CCNCCCCCCNCC(F)(F)c3ccccc3)c2s1 | > 8 | – | 6.84 | 1.57 | – | – | > 180 min | –
Oc1nc2cccc(CCNCCCCCCNCCc3ccc(O)c4nc(O)sc34)c2s1 | > 8 | – | 7.86 | 1 | – | – | 45 min | –
O=S(=O)(Nc1ccc(CCOCCCSCCNCCc2ccc(O)c3nc(O)sc23)cc1)c1ccccc1 | > 8 | – | 7.57 | 3.52 | – | – | > 180 min | –
Oc1nc2c(O)ccc(CCNCCSCCCOCCc3ccccn3)c2s1 | > 8 | – | 7.51 | 1.75 | – | – | > 180 min | –
O=S(=O)(CCCNCCc1ccc(O)c2nc(O)sc12)CCNCCOc1ccccc1 | > 8 | – | 6.73 | 0.9 | – | – | 28 min | –
O=C(CCCOCCc1ccccc1)NCCNCCc1ccc(O)c2nc(O)sc12 | > 8 | – | 7.56 | 1.55 | – | – | 71 min | –
O=S(=O)(CCCOCCc1nccs1)CCNCCc1ccc(O)c2nc(O)sc12 | < 8 | – | 7.72 | 2.35 | – | – | 45 min | –
O=[N+]([O-])c1ccc(CCOCCCSCCNCCc2ccc(O)c3nc(O)sc23)cc1 | > 8 | – | 6.78 | 3.29 | – | – | > 180 min | –
NC(=O)c1ccc(CCOCCCS(=O)(=O)CCNCCc2ccc(O)c3nc(O)sc23)cc1 | < 8 | – | 7.54 | 1.1 | – | – | 50 min | –
O=S(=O)(CCNCCc1ccc(O)c2nc(O)sc12)NCCOCCc1ccccc1 | > 8 | – | 6.48 | 2.38 | – | – | 79 min | –
Cc1cnc(CCOCCCS(=O)(=O)CCNCCc2ccc(O)c3nc(O)sc23)s1 | < 8 | – | 7.61 | 2.87 | – | – | 126 min | –
O=S(=O)(CCCNCCc1ccc(O)c2nc(O)sc12)CCOCCCc1ccccc1 | > 8 | – | 8.69 | 2.1 | – | – | > 180 min | –
O=S(=O)(CCCNCCc1ccc(O)c2nc(O)sc12)CCOCCc1cccc2ccccc12 | > 8 | – | 7.73 | 2.54 | – | – | > 180 min | –
O=S(=O)(CCCOCCc1ccccn1)CCNCCc1ccc(O)c2nc(O)sc12 | < 8 | – | 7.49 | 0.95 | – | – | 24 min | –
O=C(CCCCCNCCc1ccc(O)c2nc(O)sc12)NCCc1ccccc1 | > 8 | – | 7.18 | 1.29 | – | 90 min | 22 min | –
